In patent US12275685B2, “Oligo-benzamide analogs and their use in cancer treatment” (Board of Regents, The University of Texas System, priority 2018, dated 2025):
“Also recorded” adds a separate entry of the source. Read-outs that look alike come from different tables or passages of the source.

What was measured:
[1] = system: cell lines driven by MT-ERα; experiment: sXBP1 and CHOP RNA expression; details: three cell lines driven by MT-ERα
[2] = system: D538G MT-ERα; experiment: ERE reporter assay, ERX-315; format: cell-based; details: MCF-7 cells expressing D538G MT-ERα
[3] = system: breast cancer cells; experiment: Growth inhibition of breast cancer cells; format: cell-based; details: read-out: IC50, activity against breast cancer cells
Description: In addition, another tris-benzmaide compound TK208 was synthesized and tested against breast cancer and ovarian cancer cell lines (FIGS. 10-15). […] These compounds (e.g., TK41, TK208, TK308 (FIG. 21), TK309 (FIG. 22), TK314, TK315) are extremely potent compounds that inhibit tumor growth and kill breast and ovarian cancer cells and as such, they are superb therapeutic candidates for such diseases.

[4] = system: BC cells expressing MT-ERα; experiment: Uncompensated UPR / LC3B activation; format: cell-based
Method: ERX-315 decreases expression of ERα MCF-7 cells with MT-ERα, both the Y537S and D538G mutants (FIG. 67C), around 12-16 h (FIG. 67D). […] In contrast, neither fulvestrant nor GDC-0810 consistently degrade MT-ERa nor induce LC3.

[5] = system: D538G MT-ERα; experiment: ERα ChIP, ERX-315; format: cell-based
Description: (§1) FIGS. 66A-D: (FIG. 66A) Effect of ERX-315 on ERa DNA binding on the promoters of 5 canonical ERα-regulated genes with ERa ChIP in MCF-7 expressing D538G MT-ERα in the absence and presence of estradiol.
(§2) Prior studies have shown that MT-ERα drives a canonical ERα transcriptional programme, both in the absence and presence of estradiol. RNA sequencing studies indicate that ERX-315 alters the transcriptional heatmap in MCF-7 and ZR-75 cells expressing D538G and Y537S MT-ERα (FIG. 66B, data shown for MCF-7 cells expressing D538G MT-ERα).

[6] = system: human mammary epithelial cells (HMEC); experiment: Activity of ERX-315 in HMEC; format: cell-based
Description: ERX-315. The binding of ERX-315 (structure shown in FIG. 65C) to ERα has been validated for WT ERα LBD using time-resolved FRET (TR-FRET)-ERα Coactivator assay (FIG. 65D: purified MT-ERα LBD is not available). […] In contrast, ERX-314, which has a methyl group in place of the N-terminal fluoride of ERX-315, is modeled to bind less avidly to MT-ERα LBD (predicted docking energy˜[…]). […] ERX-315 had no activity against benign breast epithelial cells, shown for the human mammary epithelial cells (HMEC). In contrast, ERX-314 has dramatically lower potency (IC50˜1500-5000 nM) and serves an internal control for ERX-315. The inventors have performed most of the studies described below with three compounds-ERX-315 as the optimized lead, ERX-11 as the parental compound and ERX-314 as a negative control.

[7] = system: MT-ERα; experiment: RNA sequencing of MT-ERα transcriptional programme; format: cell-based; details: MCF-7 and ZR-75 cells expressing D538G and Y537S MT-ERα
Description: as §1, §2

[8] = target: T1, WT ERα LBD (Homo sapiens, UniProt P03372); experiment: LanthaScreen TR-FRET ERα coactivator assay; format: binding
T1 construct: in the presence of 3.5 nM ER Alpha-LBD (GST); purchased

[9] = system: WT- and MT-ERα-driven cell lines (MCF-7, ZR-75); experiment: Anti-proliferative activity in WT- and MT-ERα-driven cell lines; format: cell-based
[10] = system: MT-ERα (ZR-75 and MCF-7 cells with MT Y537S ERα) driven xenograft models; experiment: ERX-315 in MT-ERα BC xenograft models; format: in vivo; details: for growth of MT-ERα xenografts / mouse liver, uterus, body weight: oral 10 mg/kg; for growth of MT-ERα xenografts: captisol
Method: Following establishment of tumors, mice (n=6/group) were randomized and treated for 5 days/week with either 10 mg/kg/oral of ERX-315 or vehicle.

[11] = system: HMEC cells; experiment: Protein synthesis by puromycin labeling, HMEC; format: cell-based, human
[12] = system: MT-ERα; experiment: MT-ERα protein levels; format: cell-based; details: over 12-24 h
[13] = system: MCF-7 expressing mutant D538G; experiment: Protein synthesis by puromycin labeling, BC cells; format: cell-based; details: 16 h
[14] = Pharmacokinetic studies of ERX-315; format: in vivo, mice
Method: At 24 h after oral administration, ERX-315 was still detectable in the plasma at >500 ng/mL. […] Thus, the inventors' initial studies indicate that once a day oral dosing of 10 mg/kg ERX-315 in captisol is sufficient to maintain therapeutic drug levels.

T1 sequence (P03372 311-547 limits assumed): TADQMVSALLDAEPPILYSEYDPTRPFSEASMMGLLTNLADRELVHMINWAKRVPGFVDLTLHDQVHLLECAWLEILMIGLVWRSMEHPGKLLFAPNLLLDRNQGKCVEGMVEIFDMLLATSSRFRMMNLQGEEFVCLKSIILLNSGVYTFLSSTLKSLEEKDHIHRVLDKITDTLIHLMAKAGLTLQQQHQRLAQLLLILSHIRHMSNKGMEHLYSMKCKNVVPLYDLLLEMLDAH

In the case of `CC(C)COc1cc(C(=O)Nc2ccc(C(=O)N[C@H]3CC[C@H](C(=O)Nc4cnc5ccccc5c4)CC3)cc2OCC(C)C)ccc1NC(=O)c1ccc(F)c(OCCO)c1` [TK315], the “expression of sXBP1 and CHOP at the RNA level” value [1] is reported as “significantly enhance”, the ERE-driven transcription [2] is reported as “attenuate transcription” and the IC50 [3] is reported as 10 to 50 nM. The “uncompensated UPR leading to LC3B activation and cell death” value [4] was “induced uncompensated UPR”, the “MT-ERα binding to promoters of ERα-regulated genes” value [5] was “dramatically decreases MT-ERα binding” and the “activity against benign breast epithelial cells” value [6] was “no activity”. The MT-ERα transcriptional programme [7] was “efficiently blocks the transcriptional programme”, the “binding to WT ERα LBD” value [8] was “validated” and the IC50 [9] was 15 to 35 nM. For the same compound, the “Ki67 proliferation indices in tumors” value ([10]; mouse, in vivo) was “dramatically decreased Ki67 proliferation indices”, the “growth of MT-ERα xenografts” value ([10]; 10 mg/kg) was “potent activity; also recorded: decreased the growth and tumor weight” and the “growth of MT-ERα xenografts” value ([10]; listed as ERX-315, 10 mg/kg) was “decreased the growth; also recorded: potent activity”. For the same compound, the “mouse liver, uterus, body weight” value ([10]; 10 mg/kg) was “no effect on mouse liver or body weight; also recorded: No change in body weight”, the “mouse liver, uterus, body weight” value ([10]; listed as ERX-315, 10 mg/kg) was “no change in body weight; also recorded: no effect on mouse liver, uterus height or body weight” and the immunogenicity ([10]; syngeneic D2A1 tumors, spleen, lymph nodes, kidney, liver) was “not immunogenic”. For the same compound, the “shutdown of protein synthesis in HMEC” value [11] was “no significant shutdown of protein synthesis”, the “protein levels of mutant ERα” value [12] was under 10 % basal and the “shutdown of protein synthesis in BC cells” value [13] was “Global shutdown of protein synthesis”. For the same compound, the oral bioavailability ([14]; captisol formulation) was “orally bioavailable”, the concentration at 0.5 h ([14]; mouse, blood, 0.5 hr, single oral 10 mg/kg in captisol) was 3440 ± 2320 ng/mL and the concentration at 1 h ([14]; mouse, blood, 1 hr, single oral 10 mg/kg in captisol) was 2400 ± 1460 ng/mL. It also gave a concentration at 2 h ([14]; mouse, blood, 2 hr, single oral 10 mg/kg in captisol, read-out: Blood) of 1840 ± 1290 ng/mL, a concentration at 4 h ([14]; mouse, blood, 4 hr, single oral 10 mg/kg in captisol, read-out: Blood) of 16000 ± 394 ng/mL and a concentration at 8 h ([14]; mouse, blood, 8 hr, single oral 10 mg/kg in captisol, read-out: Blood) of 823 ± 123 ng/mL. The concentration at 16 h ([14]; mouse, blood, 16 hr, single oral 10 mg/kg in captisol, read-out: Blood) was 427 ± 197 ng/mL, the concentration at 24 h ([14]; mouse, plasma, 10 mg/kg, 24 h after oral administration, read-out: plasma level) was over 500 ng/mL and the half-life ([14]; mouse, plasma, 10 mg/kg, oral, captisol) was about 4.5 h. For the same compound, the concentration at 2 h ([14]; mouse, tumor, 10 mg/kg, 2 hr after last dose, MCF7 xenograft, oral 5 days/week for 10 days, read-out: Tumor) was 1430 ± 631 ng/mL, the concentration at 4 h ([14]; mouse, tumor, 10 mg/kg, 4 hr after last dose, MCF7 xenograft, oral 5 days/week for 10 days, read-out: Tumor) was 1010 ± 850 ng/mL and the concentration at 8 h ([14]; mouse, tumor, 10 mg/kg, 8 hr after last dose, MCF7 xenograft, oral 5 days/week for 10 days, read-out: Tumor) was 609 ± 404 ng/mL. It also gave a concentration at 16 h ([14]; mouse, tumor, 10 mg/kg, 16 hr after last dose, MCF7 xenograft, oral 5 days/week for 10 days, read-out: Tumor) of 187 ± 238 ng/mL, a concentration at 16 h ([14]; mouse, tumor, oral, 10 mg/kg, 16 h after the last dose, read-out: corresponding tumor concentration) of over 100 nM and a concentration at 16 h ([14]; mouse, tumor, MCF-7 xenograft, 2 weeks daily oral 10 mg/kg, 16 h after the last dose, read-out: tumor tissue level) of over 100 ng/g. For the same compound, the “toxicity at 10 mg/kg” value ([14]; once a day oral 10 mg/kg) was “no significant toxicity”.
